Test: Comment Code material properties: vapor pressure, ClogP, probability of ingredient color instability, odor detection threshold, melamine formaldehyde PMC headspace response ratio and leakage, liquid dish neat product liquid-air partition coefficient
Assay type: physicochemical
[1] = cell strings several class symbols together, each letter is one property class of L1
[2] = Table 1 materials, each letter of the code is one property class (vapor pressure, ClogP, color instability, odor detection threshold, PMC headspace ratio, PMC leakage, liquid dish liquid-air partition coefficient)

Row | Comment Code [1] | Comment Code (letter codes A-L: vapor pressure, ClogP, probability of ingredient color instability, odor detection threshold, PMC headspace response ratio, PMC leakage, liquid dish liquid-air partition coefficient, Table 1 materials with at least one MORV from 1 to 5) | Comment Code [2] | SMILES
1 | ADEFGIJKL | – | – | CC12CCC(CC1)C(C)(C)O2 [Material 376]
2 | – | ADEFHJKL | – | CCC=CCCOC(=O)C(C)C [Material 1125]
3 | ACEFHIKL | – | – | COC(=O)C=C1CCCC1 [Material 116]
4 | – | – | DEFHJ | COC(=O)c1ccccc1N=CC1CC(C)=CC(C)C1 (stereo not shown) [Material 754]
5 | – | – | DHJK | CC(=O)C1CC/C(C)=C\CC/C(C)=C\C/C=C/1C (stereo not shown) [Material 1095]
6 | – | – | DFHJK | N#CC(=C1CCCCC1)c1ccccc1 [Material 945]
7 | – | – | DEFHJK | CC(C)=CCCC(C)=C1CC=C(C)CC1 [Material 608]
8 | – | – | BCEFHJKL | C/C=C1/CC2CC1C1CCCOC21 (stereo not shown) [Material 1008]
9 | – | – | CEFGJ | CCOC(=O)CC(O)(CC(=O)OCC)C(=O)OCC [Material 1091]
10 | – | – | DGJ | O=C1CCCCCCCCCCOCCCCO1 [Material 562]
11 | BDEFGIJK | – | – | CC(C)(O)CCC1CCCCC1 [Material 496]
12 | – | – | BCHIJK | CC1=CCC(O)(C(C)C)CC1 (stereo not shown) [Material 791]
13 | – | – | DFHJK | CC1=C2CC(C(C)(C)O)CCC2(C)CCC1 (stereo not shown) [Material 872]
14 | ADEFGIJKL | – | – | CC1=CCC2CC1C2(C)C (stereo not shown) [Material 1001]
15 | DEFHIJK | – | DEFHIJK | CC1CCC2(O)C(C)(C)C3CCC2(C)C1C3 (stereo not shown) [Material 933]
16 | – | – | CHIJK | C=C(C)C1CC=C(CO)CC1 (stereo not shown) [Material 948]
17 | BCHJK | – | – | CC(C)C(=O)OCc1ccccc1 [Material 647]
18 | ADEFGIJKL | – | – | CC1=CCC(C(C)C)=CC1 [Material 319]
19 | – | – | DEFHJKL | CC1=CCCC2(C)CCC(=C(C)C)CC12 (stereo not shown) [Material 1031]
20 | – | – | BCGI | COc1cc(OC)c(C=O)c(OC)c1 [Material 736]
21 | DFHJ | – | – | CC1COC(C)(c2ccc3c(c2)C(C)(C)CCC3(C)C)O1 (stereo not shown) [Material 2]
22 | BDFHIJKL | – | – | CCOC(=O)C(C)C1CCCCC1 (stereo not shown) [Material 412]

Row | Comment Code [1] | Comment Code (letter codes A-L: vapor pressure, ClogP, probability of ingredient color instability, odor detection threshold, PMC headspace response ratio, PMC leakage, liquid dish liquid-air partition coefficient, Table 1 materials with at least one MORV from 1 to 5) | Comment Code [2] | SMILES
23 | DEFHJK | – | BDEFHJK | CC1CC2CCC3C(C2O1)C(C)(C)C(C)C3(C)C (stereo not shown) [Material 1097]
24 | ACEFGIJKL | – | – | CC1CC(=O)CC(C)(C)C1 (stereo not shown) [Material 439]
25 | – | – | ACEFHIJKL | CCCCC(CC)C1OCCO1 (stereo not shown) [Material 1043]
26 | – | – | ACEFHK | CCC=CCCC=CCO [Material 865]
27 | DEFHJK | – | DEFHJK | C=C1CC[C@@H]2[C@H]([C@H]3[C@H]1CC[C@]3(C)O)C2(C)C [Material 1035]
28 | – | – | BDEFGJK | C=C(C)C1CCC2(C)CCCC(=C)C2C1 (stereo not shown) [Material 615]
29 | – | – | DEFHJK | C=CC(C)=CCC=C(C)CCC=C(C)C [Material 710]
30 | – | – | CEFHJK | C/C(=C\C#N)CCc1ccccc1 [Material 894]
31 | ADEFGIJKL | – | – | CC1=CC[C@@H]2C[C@H]1C2(C)C [Material 901]
32 | – | – | BDEFHIJK | CC(C)C(=O)OC1CC2CCC1(C)C2(C)C (stereo not shown) [Material 603]
33 | ADEFHKL | – | – | C=C(C)COCC/C=C\CC [Material 1141]
34 | BDHIJK | – | – | CC=CC(=O)C1C(C)=CCCC1(C)C (stereo not shown) [Material 1074]
35 | DFGJ | – | – | O=C(OCc1ccccc1)c1ccccc1O [Material 641]
36 | – | – | DEFHJK | CC1=CCC(CCC(C)CO)C1(C)C (stereo not shown) [Material 600]
37 | BCEFHJK | – | – | CC(C)=CCC/C(C)=C\COC=O [Material 59]
38 | DEFHJK | – | – | c1ccc(COCc2ccccc2)cc1 [Material 454]
39 | – | – | DEFHJ | CCCCCC(=Cc1ccccc1)CO [Material 721]
40 | – | – | DEFHJK | CC(CO)CCCc1ccccc1 (stereo not shown) [Material 1012]
41 | ACGIKL | – | – | COC(C)(C)CCO [Material 812]
42 | – | – | BDEFHJK | C=CCOC(=O)CCC1CCCCC1 [Material 746]
43 | – | – | ACEFHK | CCC=CCC=CCCO [Material 929]
44 | BCEFGIJK | – | – | C=CC(C)(O)CCC=C(C)C (stereo not shown) [Material 157]

Row | Comment Code [1] | Comment Code (letter codes A-L: vapor pressure, ClogP, probability of ingredient color instability, odor detection threshold, PMC headspace response ratio, PMC leakage, liquid dish liquid-air partition coefficient, Table 1 materials with at least one MORV from 1 to 5) | Comment Code [2] | SMILES
45 | – | – | BDEFHJK | CCC=CCC=CC=CC(=O)OCC [Material 1000]
46 | – | – | CEFGJK | CC(C)(O)CCc1ccccc1 [Material 639]
47 | ADEFHKL | – | – | CCCCCCCOC(C)=O [Material 283]
48 | – | – | CHJK | CC(=CCC1CC=C(C)C1(C)C)CO (stereo not shown) [Material 1025]
49 | BDEFHJK | – | – | C=C1C2CCC(C)(C)C1CCC(OC)C2 (stereo not shown) [Material 7]
50 | – | – | BDEFHJK | CCCCC/C=C/C=C\C(=O)OCC [Material 942]
51 | – | – | CHJK | CC(=CCC1CC=C(C)C1(C)C)CO (stereo not shown) [Material 908]
52 | ACGIJKL | – | – | C=C(C)C1CC=C(C)C(=O)C1 (stereo not shown) [Material 576]
53 | – | – | ACHKL | CCC=CCCC=CC=O [Material 864]
54 | BDEFHJK | – | – | CCCCCCCC1(C)OCC(C)O1 (stereo not shown) [Material 838]
55 | ACHIK | – | – | CC(C=O)=Cc1ccccc1 [Material 701]
56 | BDHIJK | – | – | CC(=O)C(C)=CC1C(C)=CCCC1(C)C (stereo not shown) [Material 703]
57 | – | – | ADEFGIJKL | C=C1CC2CCC1C2(C)C (stereo not shown) [Material 711]
58 | DEFHJK | – | – | CC1(CO)CC1CC1CC2CC2(C)C1(C)C (stereo not shown) [Material 185]
59 | ACEFHIKL | – | – | CC/C=C\CCOC(=O)CC [Material 538]
60 | BCEFHJK | – | – | CCC(C)C(=O)N(C)c1ccccc1 (stereo not shown) [Material 314]
61 | – | – | DEFHJK | CC(=O)OC(C)CCC=C(C)CCC=C(C)C (stereo not shown) [Material 881]
62 | – | – | ADHKL | C=CCCCCCCCC=O [Material 770]
63 | DHJK | – | DHJK | CC(C)=C1CCC2=CC(=O)CC(C)C2(C)C1 (stereo not shown) [Material 684]
64 | – | – | BDEFHJK | CCCCCC=CC=CC(=O)OCC [Material 951]
65 | DEFHJKL | – | – | CC(=O)OC1CC2CC1C1CCCC21 (stereo not shown) [Material 441]
66 | – | – | CHJK | COC1CC2CC1C1CC(C=O)CC21 (stereo not shown) [Material 1026]

Row | Comment Code [1] | Comment Code (letter codes A-L: vapor pressure, ClogP, probability of ingredient color instability, odor detection threshold, PMC headspace response ratio, PMC leakage, liquid dish liquid-air partition coefficient, Table 1 materials with at least one MORV from 1 to 5) | Comment Code [2] | SMILES
67 | ACHK | – | – | COc1ccccc1C=CC=O [Material 26]
68 | – | – | ACHKL | CC/C=C\CC/C=C/C=O [Material 1066]
69 | – | – | ACEFHJKL | CC(C)OCCc1ccccc1 [Material 950]
70 | DEFGJ | – | – | O=C1CCCCCCC/C=C/CCCCCCC1 [Material 501]
71 | BDEFHJK | – | – | CC1CCOC(c2ccccc2)C1 (stereo not shown) [Material 420]
72 | CEFHJK | – | CEFHJK | CCC(=O)OC1CC2CC1C1CC=CC21 (stereo not shown) [Material 919]
73 | – | – | DEFHJK | CC1=CCCC(C)=CCC(C)(C)C=CC1 [Material 706]
74 | ACEFGIKL | – | – | CC1CCC(=O)C1=O (stereo not shown) [Material 810]
75 | – | – | CHJ | O=CC(=Cc1ccco1)c1ccccc1 [Material 833]
76 | ACEFGIKL | – | – | CCCCCC(=O)O [Material 583]
77 | – | – | DEFHJK | CCOCOC1CCCCCCCCCCC1 [Material 607]
78 | CHJK | – | – | COC1CC2CC1C1CC(C=O)CC21 (stereo not shown) [Material 1027]
79 | ACGIJKL | – | – | C=C(C)C1CC=C(C)C(=O)C1 (stereo not shown) [Material 902]
80 | CEFHJ | – | – | CC1=CCC(C=CC(C)(C)C(C)O)C1(C)C (stereo not shown) [Material 53]
81 | ACGIJKL | – | – | C=C(C)C1CCC(C)C(=O)C1 (stereo not shown) [Material 419]
82 | – | – | DHJ | O=C(OCc1ccccc1)c1ccccc1 [Material 653]
83 | – | – | CEFHJK | CCCOC(C)OCCc1ccccc1 (stereo not shown) [Material 766]
84 | – | – | CEFHJK | CC(C)c1ccc2ncccc2c1 [Material 778]
85 | – | – | BDFHIJKL | CC1=CCCC(C)(C)C12CCC(C)O2 (stereo not shown) [Material 1057]
86 | DHJK | – | – | CC1(C)CCc2ccc(CCC=O)cc21 [Material 260]
87 | BCEFHJK | – | – | CCC(=O)OCCc1ccccc1 [Material 835]
88 | – | – | BDFHJK | CC(CC=O)CCc1ccccc1 (stereo not shown) [Material 807]

Row | Comment Code [1] | Comment Code (letter codes A-L: vapor pressure, ClogP, probability of ingredient color instability, odor detection threshold, PMC headspace response ratio, PMC leakage, liquid dish liquid-air partition coefficient, Table 1 materials with at least one MORV from 1 to 5) | Comment Code [2] | SMILES
89 | – | – | ADHKL | CCCCCC/C=C/C=O [Material 1070]
90 | ACEFHIKL | – | – | CCC/C=C/CO [Material 1069]
91 | – | – | ADHIJKL | CC1C(C)(C)c2ccccc2C1(C)C [Material 879]
92 | BDEFHJKL | – | BDEFHJKL | C=C1CCC2C3C(C(C)C)CCC2(C)C13 (stereo not shown) [Material 631]
93 | ACFGIKL | – | – | CCC(=O)CC(C)CC (stereo not shown) [Material 784]
94 | BCEFHKL | – | – | CC(C)=CCCC(C)=CC#N [Material 302]
95 | BCEFGJKL | – | – | CC(C)=CCCC(C)CCOC=O (stereo not shown) [Material 512]
96 | – | – | BDEFHJK | CCCCCCCCC=CC#N [Material 827]
97 | ACGIJKL | – | – | CC12CCC(C1)C(C)(C)C2O (stereo not shown) [Material 366]
98 | CFGK | – | – | CCOc1cc(COC)ccc1O [Material 115]
99 | – | – | DHJK | CC1=CCC(/C=C/C(C)(C)C(C)O)C1(C)C (stereo not shown) [Material 985]
100 | ACEFHIJKL | – | – | CCCC(C)(S)CO (stereo not shown) [Material 1098]
101 | – | – | DEFHJK | C=CCCCCCCCCCO [Material 870]
102 | DEFHJK | – | DEFHJK | CC(=O)OC12CCCC(C)(CCC3C1CC3(C)C)C2 (stereo not shown) [Material 573]
103 | BDEFHIK | – | – | CC(O)CCC1CCCCC1 (stereo not shown) [Material 699]
104 | BDHJK | – | – | CC(C)(C)c1ccc(CC=O)cc1 [Material 994]
105 | – | – | BCEFHIJKL | C=C1C(O)CC2(C(C)C)CC12 (stereo not shown) [Material 1020]
106 | DEFHJK | – | DEFHJK | C=C1C2CCC(C2)C1(C)CCC=C(C)CO (stereo not shown) [Material 616]

Row | SMILES | Comment Code [1] | Comment Code (letter codes A-L: vapor pressure, ClogP, probability of ingredient color instability, odor detection threshold, PMC headspace response ratio, PMC leakage, liquid dish liquid-air partition coefficient, Table 1 materials with at least one MORV from 1 to 5) | Comment Code [2]
107 | CC(C)[C@@]12CC(=O)[C@H](C)[C@@H]1C2 [Material 683] | – | – | ADEFGIJKL
108 | N#C/C=C/c1ccccc1 [Material 556] | ACEFGIK | – | –
109 | C=C(C)C1CC=C(C=O)CC1 (stereo not shown) [Material 946] | – | – | ACHIJK
110 | CCCCOC(=O)c1ccccc1C(=O)OCCCC [Material 455] | DEFHJ | – | –
